For series [1], the system named is HGC-27. Nature of the series: Induction of apoptosis in human HGC-27 cells assessed as late apoptotic cells at 0.5 uM incubated for 48 hrs by annexin V FITC/propidium iodide staining based flow cytometry (reference value: 5.14 %). It is filed as functional. On the technique in general: Flow cytometry measures light scatter and fluorescence of single cells or particles in a stream.

Series [2] has as its system HGC-27. Put plainly: Induction of cell cycle arrest in human HGC-27 cells assessed as reduction in accumulation of cells at G0/G1 phase at 0.5 to 8 uM incubated for 24 hrs by PI staining based flow cytometry analysis. It counts as functional. As to conditions: dose 0.5-8 µM.
The subject of series [3] is HGC-27. Nature of the series: Induction of apoptosis in human HGC-27 cells assessed as late apoptotic cells at 2 uM incubated for 48 hrs by annexin V FITC/propidium iodide staining based flow cytometry (reference value: 5.14 %). It counts as functional.
The test system of series [4] is HGC-27. Put plainly: Induction of cell cycle arrest in human HGC-27 cells assessed as reduction in accumulation of cells at G2/M phase at 0.5 to 8 uM incubated for 24 hrs by PI staining based flow cytometry analysis. It is filed as functional. As to conditions: dose 0.5-8 µM.
A short description of series [5]: Toxicity in BALB/c mouse xenografted with human HGC-27 cells assessed as mean corpuscular volume at 75 mg/kg, po bid for 19 days. It counts as organism-based. As to conditions: in vivo, 456 h, time 19 day. Background: A xenograft is tissue or cells of one species grown in another, often human tumour cells in immunodeficient mice.
The nature of series [6]: Toxicity in BALB/c mouse xenografted with human HGC-27 cells assessed as monocyte level at 75 mg/kg, po bid for 19 days. It counts as organism-based. As to conditions: in vivo, 456 h, time 19 day.
The test system of series [7] is HGC-27. Nature of the series: Induction of apoptosis in human HGC-27 cells assessed as viable cells at 0.4 uM incubated for 48 hrs by annexin V FITC/propidium iodide staining based flow cytometry (reference value: 93.0 %). It is filed as functional. As to conditions: read-out: Activity.
For series [8], the system named is HGC-27. Put plainly: Induction of apoptosis in human HGC-27 cells assessed as early apoptotic cells at 0.1 uM incubated for 48 hrs by annexin V FITC/propidium iodide staining based flow cytometry (reference value: 0.66 %). It is filed as functional.
The nature of series [9]: Acute toxicity in Kunming mouse assessed as effect on lung pathology at 1000 mg/kg, po measured after 14 days. It counts as organism-based. As to conditions: in vivo, 336 h, time 14 day.
For series [10], the system named is HGC-27. Put plainly: Induction of cell cycle arrest in human HGC-27 cells assessed as reduction in accumulation of cells at G2/M phase at 0.1 to 1.6 uM incubated for 24 hrs by PI staining based flow cytometry analysis. Conditions: dose 0.1-1.6 µM. It is filed as functional.
The nature of series [11]: Acute toxicity in Kunming mouse assessed as effect on heart pathology at 1000 mg/kg, po measured after 14 days. It is filed as organism-based. Conditions: in vivo, 336 h, time 14 day.
The nature of another series: in vitro. Conditions: human, GES1 cells.
For a further series, the system named is AGS. Put plainly: cells. It counts as functional, cell-based. Conditions: Homo sapiens, 72 h.
Series [12] deals with HGC-27. Nature of the series: Induction of cell cycle arrest in human HGC-27 cells assessed as reduction in accumulation of cells at G0/G1 phase at 0.1 to 1.6 uM incubated for 24 hrs by PI staining based flow cytometry analysis. It counts as functional. Conditions: dose 0.1-1.6 µM.
The nature of series [13]: Toxicity in BALB/c mouse xenografted with human HGC-27 cells assessed as mean corpuscular volume at 150 mg/kg, po bid for 19 days. It counts as organism-based. Conditions: in vivo, 456 h, time 19 day.
The next series relates to MGC-803. Nature of the series: Induction of apoptosis in human MGC-803 cells assessed as late apoptotic cells at 20 uM incubated for 48 hrs by annexin V FITC/propidium iodide staining based flow cytometry (reference value: 4.07 %). It counts as functional.
Series [14] can be described thus: Toxicity in BALB/c mouse xenografted with human HGC-27 cells assessed as RBC level at 75 mg/kg, po bid for 19 days. It is filed as organism-based, Erythrocyte. Conditions: in vivo, 456 h, time 19 day.
The subject of series [15] is HGC-27. Put plainly: Induction of apoptosis in human HGC-27 cells assessed as upregulation in cytochrome c expression at 0.1 to 1.6 uM incubated for 48 hrs by Western blot analysis. It counts as functional, cell-based. Conditions: dose 0.1-1.6 µM.
In series [16] the test system is HGC-27. Nature of the series: Induction of apoptosis in human HGC-27 cells assessed as early apoptotic cells at 0.4 uM incubated for 48 hrs by annexin V FITC/propidium iodide staining based flow cytometry (reference value: 0.66 %). It counts as functional.

“And” between values parts separate entries of the source, which are not always exact repeats. Equal values may be shown once. The source made the active and inactive calls. No cut-off for these calls is given here.

Description for AGS: Cytotoxicity against human AGS cells assessed as inhibition of cell growth incubated for 72 hrs by MTT assay
Description for in vitro: Cytotoxicity against human GES1 cells assessed as inhibition of cell growth incubated for 72 hrs by MTT assay

Turning to `O=C(NCc1ccc(NC(=O)c2ccccc2N2CCCC2)cc1)OCc1cccnc1`, the Activity turned out to be 17.4% in the series with HGC-27 [1] and 55.9% in the series with HGC-27 [3]. Besides, the outcome in the series on HGC-27 [2] and with HGC-27 [4] was Active.
Turning to `O=C(NCc1ccc(NC(=O)c2cc(F)ccc2N2CCCC2)cc1)OCc1cccnc1`, the Activity in [5] is 49.83 fL; in series [6], 1.57 10^9/L and 2.03%; with HGC-27 [8] it was 1.43%; in series [9], “Non-Toxic”; in [11] it was “Non-Toxic”; in series [13], 49.83 fL. Moreover, the Activity with MGC-803 was 19.8%; in series [14], 11.74 10^12/L; with HGC-27 [16] it was 2.63%. Also, the viability at 0.4 µM in the series with HGC-27 [7] was 70.7%. Also, the outcome with HGC-27 [10], in the series with HGC-27 [12] and in the series on HGC-27 [15] was Active. The IC50 at 72 h in the series “in vitro” worked out at 90.2 µM. Also, the 50% inhibitory concentration (IC50) in the series on AGS was found to be 23.3 µM.

A word on the IC50: it is the point on the concentration scale where inhibition reaches its midpoint.

For the origin of these results see ChEMBL document CHEMBL5143508, “Design, synthesis and biological evaluation of novel o-aminobenzamide derivatives as potential anti-gastric cancer agents in vitro and in vivo” (Eur J Med Chem, 2022).
